Among the data in patent US20250002507A1, “7,8-DIHYDRO-5H-1,6-NAPHTHYRIDINE DERIVATIVES AS POSITIVE ALLOSTERIC MODULATORS OF THE MUSCARINIC ACETYLCHOLINE RECEPTOR M4 FOR TREATING NEUROLOGICAL AND PSYCHIATRIC DISORDERS” (Vanderbilt University, priority 2021, published 2025) are Emax and EC50 values, retold here.

Where two headings read alike, the source gives them in different places.

The test has as its target T1, Human M4 (Homo sapiens, UniProt P08173).
T1 construct: expressed in transfected cells
T1 sequence (P08173 1-479): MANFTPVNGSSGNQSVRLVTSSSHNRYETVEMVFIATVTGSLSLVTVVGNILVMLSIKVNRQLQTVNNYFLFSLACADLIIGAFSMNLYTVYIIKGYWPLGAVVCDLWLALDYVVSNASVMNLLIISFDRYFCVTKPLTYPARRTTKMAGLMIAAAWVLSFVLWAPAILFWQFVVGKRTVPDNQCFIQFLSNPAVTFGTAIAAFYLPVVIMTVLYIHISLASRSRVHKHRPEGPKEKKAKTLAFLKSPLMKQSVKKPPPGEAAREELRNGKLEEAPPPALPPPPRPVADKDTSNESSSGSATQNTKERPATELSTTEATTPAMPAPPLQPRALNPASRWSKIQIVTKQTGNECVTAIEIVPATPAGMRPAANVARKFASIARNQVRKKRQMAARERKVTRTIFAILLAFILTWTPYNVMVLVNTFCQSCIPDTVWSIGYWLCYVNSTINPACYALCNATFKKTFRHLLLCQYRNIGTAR
Description: mAChR M4 cell-based functional assay (calcium flux, potentiation of EC20 acetylcholine response), hM4-Gqi5 CHO-K1 cells. The following applies: for Emax at 30 µM: CHO-K1, % ACh maximum at 30 μM; for EC50: calcium flux, read-out: Human M4 EC50. In outline: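 Positive allosteric modulation was scored as a concentration-dependent rise in the response to an EC20 dose of acetylcholine, added 144 s after the compound. Human M4-Gqi5 CHO-K1 cells carried Fluo-4 dye, and compounds ran as 11-point, 3-fold dilution series. EC50 and Emax came from four-parameter logistic fits of the FDSS fluorescence-ratio traces.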

Setting [1] is: Table 3, Human M4, read-out: Emax (% ACh maximum at 30 μM).
[2] abbreviates: Table 3, potentiation of EC20 acetylcholine response, CHO-K1 cells.
Where [3] appears, read: hM4-Gqi5 CHO-K1 cells, PAM of EC20 acetylcholine.
[4] abbreviates: Table 4, Human M4, read-out: Emax (% ACh maximum at 30 μM).
Where [5] appears, read: Table 4, potentiation of EC20 acetylcholine response, CHO-K1 cells.

In the case of `Cc1cnc2c(c1)CN(c1nn3cc(C(=O)N4CCOCC4)nc3cc1C)CC2` [Compound 162, (7-methyl-6-(3-methyl-7,8-dihydro-1,6-naphthyridin-6(5H)-yl)imidazo[1,2-b]pyridazin-2-yl)(morpholino)methanone], the Emax at 30 µM under setting [1] amounted to 105%. The EC50 under setting [2] was 846 nM. The like results for `Cc1c(N2CCc3ncc(N4CCOc5ccc(F)cc54)cc3C2)nn2c(C(F)(F)F)nnc2c1C` [Compound 232, 4-(6-(7,8-dimethyl-3-(trifluoromethyl)-[1,2,4]triazolo[4,3-b]pyridazin-6-yl)-5,6,7,8-tetrahydro-1,6-naphthyridin-3-yl)-6-fluoro-3,4-dihydro-2H-benzo[b][1,4]oxazine] were, in that order, 83% and 353 nM. The like results for `CC(=O)c1cnc2c(c1)CN(c1nn3cnnc3c(C)c1C)CC2` [Compound 184, 1-(6-(7,8-dimethyl-[1,2,4]triazolo[4,3-b]pyridazin-6-yl)-5,6,7,8-tetrahydro-1,6-naphthyridin-3-yl)ethan-1-one] were, in that order, 96% and 704 nM. With `Cc1c(N2CCc3ncc(Nc4ccccc4N(C)C)cc3C2)nn2cnnc2c1C` [Compound 51, N1-[6-(7,8-dimethyl-[1,2,4]triazolo[4,3-b]pyridazin-6-yl)-7,8-dihydro-5H-1,6-naphthyridin-3-yl]-N2,N2-dimethyl-benzene-1,2-diamine], the Emax at 30 µM (human M4, read-out: Emax) turned out to be 67%. Under setting [3], the EC50 stood at 402 nM. Turning to `Cc1c(N2CCc3ncc(N4CCOC(c5cccnc5)C4)cc3C2)nn2c(C(F)(F)F)nnc2c1C` (stereo not drawn) [Compound 328, 4-(6-(7,8-dimethyl-3-(trifluoromethyl)-[1,2,4]triazolo[4,3-b]pyridazin-6-yl)-5,6,7,8-tetrahydro-1,6-naphthyridin-3-yl)-2-(pyridin-3-yl)morpholine], the Emax at 30 µM under setting [4] amounted to 76%. In addition, the EC50 under setting [5] turned out to be 623 nM.

`Cc1ccc(-c2cnc3c(c2)CN(c2nn4cnnc4c(C)c2C2CC2)CC3)cn1` [Compound 347, 6-(7-cyclopropyl-8-methyl-[1,2,4]triazolo[4,3-b]pyridazin-6-yl)-3-(6-methylpyridin-3-yl)-5,6,7,8-tetrahydro-1,6-naphthyridine]: the Emax at 30 µM under setting [4] worked out at 61%. In addition, under setting [5], the EC50 was found to be 788 nM. Turning to `Cc1cc2nncn2nc1N1CCc2ncc(-c3c(C)cnn3C)cc2C1` [Compound 135, 3-(2,4-dimethylpyrazol-3-yl)-6-(7-methyl-[1,2,4]triazolo[4,3-b]pyridazin-6-yl)-7,8-dihydro-5H-1,6-naphthyridine], under “human M4, read-out: Emax”, the Emax at 30 µM stood at 81%. The EC50 under setting [3] came out at 772 nM. With `Cc1cc2nnc(C(F)(F)F)n2nc1N1CCc2ncc(N3CCCn4nccc43)cc2C1` [Compound 325, 3-(6,7-dihydropyrazolo[1,5-a]pyrimidin-4(5H)-yl)-6-(7-methyl-3-(trifluoromethyl)-[1,2,4]triazolo[4,3-b]pyridazin-6-yl)-5,6,7,8-tetrahydro-1,6-naphthyridine], the Emax at 30 µM under setting [4] worked out at 116%. Moreover, the EC50 under setting [5] is 50 nM.

`Cc1c(N2CCc3ncc(N4CCOC(C)(C)C4)cc3C2)nn2c(C(F)(F)F)nnc2c1C` [Compound 286, 4-(6-(7,8-dimethyl-3-(trifluoromethyl)-[1,2,4]triazolo[4,3-b]pyridazin-6-yl)-5,6,7,8-tetrahydro-1,6-naphthyridin-3-yl)-2,2-dimethylmorpholine]: the Emax at 30 µM under setting [1] came out at 94%. In addition, the EC50 under setting [2] turned out to be 102 nM. On to `Cc1ccc(Oc2cnc3c(c2)CN(c2nn4cnnc4c(C)c2C)CC3)c(F)c1` [Compound 289, 6-(7,8-dimethyl-[1,2,4]triazolo[4,3-b]pyridazin-6-yl)-3-(2-fluoro-4-methylphenoxy)-5,6,7,8-tetrahydro-1,6-naphthyridine], for which the Emax at 30 µM under setting [1] is 102%. The EC50 under setting [2] amounted to 265 nM. The like results for `Cc1c(N2CCc3ncc(NC4CCOC4)cc3C2)nn2c(C(F)(F)F)nnc2c1C` (stereo not drawn) [Compound 279, 6-(7,8-dimethyl-3-(trifluoromethyl)-[1,2,4]triazolo[4,3-b]pyridazin-6-yl)-N-(tetrahydrofuran-3-yl)-5,6,7,8-tetrahydro-1,6-naphthyridin-3-amine] were, in that order, 86% and 1010 nM. With `Cc1c(C2CC2)c(N2CCc3ncc(C(F)(F)F)cc3C2)nn2cnnc12` [Compound 346, 6-(7-Cyclopropyl-8-methyl-[1,2,4]triazolo[4,3-b]pyridazin-6-yl)-3-(trifluoromethyl)-5,6,7,8-tetrahydro-1,6-naphthyridine], under setting [4], the Emax at 30 µM was 70%. For the same compound, under setting [5], the EC50 came out at 2110 nM. `Cc1c(N2CCc3ncc(C(=O)Nc4ccccc4F)cc3C2)nn2c(C(F)(F)F)nnc2c1C` [Compound 226, 6-(7,8-dimethyl-3-(trifluoromethyl)-[1,2,4]triazolo[4,3-b]pyridazin-6-yl)-N-(2-fluorophenyl)-5,6,7,8-tetrahydro-1,6-naphthyridine-3-carboxamide]: the Emax at 30 µM under setting [1] amounted to 79%. In addition, the EC50 under setting [2] was 1780 nM. For the compound `Cc1c(N2CCc3ncc(C(=O)NCC4COC4)cc3C2)nn2cnnc2c1C` [Compound 120, 6-(7,8-dimethyl-[1,2,4]triazolo[4,3-b]pyridazin-6-yl)-N-(oxetan-3-ylmethyl)-7,8-dihydro-5H-1,6-naphthyridine-3-carboxamide], the Emax at 30 µM (human M4, read-out: Emax) worked out at 76%.

As for `Cc1cc2nncn2nc1N1CCc2ncc(N3CCN(C)C(=O)C3)cc2C1` [Compound 332, 1-methyl-4-(6-(7-methyl-[1,2,4]triazolo[4,3-b]pyridazin-6-yl)-5,6,7,8-tetrahydro-1,6-naphthyridin-3-yl)piperazin-2-one], the Emax at 30 µM under setting [4] was determined as 71%. In addition, under setting [5], the EC50 was found to be 2590 nM. Regarding `Cc1c(N2CCc3ncc(-c4ccc(N5CCC(F)(F)C5)nc4)cc3C2)nn2cnnc2c1C` [Compound 225, 3-(6-(3,3-difluoropyrrolidin-1-yl)pyridin-3-yl)-6-(7,8-dimethyl-[1,2,4]triazolo[4,3-b]pyridazin-6-yl)-5,6,7,8-tetrahydro-1,6-naphthyridine], the Emax at 30 µM under setting [1] amounted to 85%. Besides, under setting [2], the EC50 amounted to 435 nM. The like results for `Cc1c(N2CCc3ncc(C(C)C)cc3C2)nn2cnnc2c1C` [Compound 218, 6-(7,8-dimethyl-[1,2,4]triazolo[4,3-b]pyridazin-6-yl)-3-isopropyl-5,6,7,8-tetrahydro-1,6-naphthyridine] were, in that order, 89% and 186 nM. On to `CSc1ccccc1Nc1cnc2c(c1)CN(c1nn3cnnc3c(C)c1C)CC2` [Compound 55, 6-(7,8-dimethyl-[1,2,4]triazolo[4,3-b]pyridazin-6-yl)-N-(2-methylsulfanylphenyl)-7,8-dihydro-5H-1,6-naphthyridin-3-amine], for which, under “human M4, read-out: Emax”, the Emax at 30 µM worked out at 85%. Moreover, under setting [3], the EC50 amounted to 241 nM. For the compound `Cc1cc2nnc(C(F)(F)F)n2nc1N1CCc2ncc(Oc3ccc(F)cc3F)cc2C1` [Compound 296, 3-(2,4-difluorophenoxy)-6-(7-methyl-3-(trifluoromethyl)-[1,2,4]triazolo[4,3-b]pyridazin-6-yl)-5,6,7,8-tetrahydro-1,6-naphthyridine], the Emax at 30 µM under setting [1] was 96%. Moreover, the EC50 under setting [2] was found to be 1120 nM. `Cc1c(N2CCc3ncc(N4CCN(C)C(=O)C4)cc3C2)nn2cnnc2c1C` [Compound 333, 4-(6-(7,8-dimethyl-[1,2,4]triazolo[4,3-b]pyridazin-6-yl)-5,6,7,8-tetrahydro-1,6-naphthyridin-3-yl)-1-methylpiperazin-2-one]: under setting [4], the Emax at 30 µM stood at 52%. Moreover, under setting [5], the EC50 worked out at 1340 nM. Turning to `Cc1cc2nncn2nc1N1CCc2ncc(C(C)(C)O)cc2C1` [Compound 233, 2-(6-(7-methyl-[1,2,4]triazolo[4,3-b]pyridazin-6-yl)-5,6,7,8-tetrahydro-1,6-naphthyridin-3-yl)propan-2-ol], the Emax at 30 µM under setting [1] was 97%. Moreover, under setting [2], the EC50 is 4010 nM. Regarding `Cc1c(N2CCc3ncc(N4C[C@@H](C)O[C@@H](C)C4)cc3C2)nn2c(C(F)(F)F)nnc2c1C` [Compound 318, (2R,6S)-4-(6-(7,8-dimethyl-3-(trifluoromethyl)-[1,2,4]triazolo[4,3-b]pyridazin-6-yl)-5,6,7,8-tetrahydro-1,6-naphthyridin-3-yl)-2,6-dimethylmorpholine], the Emax at 30 µM under setting [4] came out at 80%. Moreover, the EC50 under setting [5] turned out to be 2150 nM. The like results for `Cc1cc2nncn2nc1N1CCc2ncc(C(C)(O)C(F)(F)F)cc2C1` (stereo not drawn) [Compound 335, 1,1,1-trifluoro-2-(6-(7-methyl-[1,2,4]triazolo[4,3-b]pyridazin-6-yl)-5,6,7,8-tetrahydro-1,6-naphthyridin-3-yl)propan-2-ol] were, in that order, 77% and 1700 nM.
